Assay [1] has as its target T1, 5-hydroxytryptamine receptor 1A (Homo sapiens, UniProt P08908).
T1 sequence (P08908 whole entry): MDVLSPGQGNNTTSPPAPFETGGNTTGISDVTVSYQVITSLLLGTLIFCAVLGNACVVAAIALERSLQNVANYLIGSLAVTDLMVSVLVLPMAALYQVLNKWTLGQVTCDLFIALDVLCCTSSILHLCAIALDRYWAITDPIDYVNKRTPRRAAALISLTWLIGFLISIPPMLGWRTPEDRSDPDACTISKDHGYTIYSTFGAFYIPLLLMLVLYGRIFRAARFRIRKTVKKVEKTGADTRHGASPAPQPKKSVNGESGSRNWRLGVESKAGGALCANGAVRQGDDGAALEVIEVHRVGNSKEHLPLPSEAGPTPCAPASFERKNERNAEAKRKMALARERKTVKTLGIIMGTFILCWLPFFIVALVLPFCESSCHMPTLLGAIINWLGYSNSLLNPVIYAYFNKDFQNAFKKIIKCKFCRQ
Description: Antagonist activity at 5-HT1A receptor (unknown origin).

For assay [2], the target named is T2, 5-hydroxytryptamine receptor 7 (Homo sapiens, UniProt P34969). Description: Antagonist activity at 5-HT7 receptor (unknown origin).
T2 sequence (P34969 whole entry): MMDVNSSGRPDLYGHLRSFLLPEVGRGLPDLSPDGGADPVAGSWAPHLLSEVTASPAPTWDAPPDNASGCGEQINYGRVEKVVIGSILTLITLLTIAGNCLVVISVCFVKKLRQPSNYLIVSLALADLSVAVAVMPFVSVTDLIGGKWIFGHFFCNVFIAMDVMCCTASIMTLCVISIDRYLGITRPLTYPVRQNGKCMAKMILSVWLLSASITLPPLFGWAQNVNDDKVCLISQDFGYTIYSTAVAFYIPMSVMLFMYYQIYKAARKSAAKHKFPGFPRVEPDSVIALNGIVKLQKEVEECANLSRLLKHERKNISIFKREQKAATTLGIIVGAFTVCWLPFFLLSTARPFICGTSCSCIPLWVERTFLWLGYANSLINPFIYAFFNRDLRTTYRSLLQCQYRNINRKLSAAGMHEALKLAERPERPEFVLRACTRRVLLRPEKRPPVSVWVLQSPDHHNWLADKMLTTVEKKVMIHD
Assay [3] has as its target T2, 5-hydroxytryptamine receptor 7. In words: biochemical. The format is cell-based.
For assay [4], the target named is 5-hydroxytryptamine receptor 7 (Rattus norvegicus, UniProt P32305). In words: Displacement of [3H]5-CT from recombinant rat 5-HT7 receptor expressed in HEK293 cells. The format is cell-based.
Chain of 5-hydroxytryptamine receptor 7 (Rattus norvegicus, UniProt P32305) (P32305 whole entry): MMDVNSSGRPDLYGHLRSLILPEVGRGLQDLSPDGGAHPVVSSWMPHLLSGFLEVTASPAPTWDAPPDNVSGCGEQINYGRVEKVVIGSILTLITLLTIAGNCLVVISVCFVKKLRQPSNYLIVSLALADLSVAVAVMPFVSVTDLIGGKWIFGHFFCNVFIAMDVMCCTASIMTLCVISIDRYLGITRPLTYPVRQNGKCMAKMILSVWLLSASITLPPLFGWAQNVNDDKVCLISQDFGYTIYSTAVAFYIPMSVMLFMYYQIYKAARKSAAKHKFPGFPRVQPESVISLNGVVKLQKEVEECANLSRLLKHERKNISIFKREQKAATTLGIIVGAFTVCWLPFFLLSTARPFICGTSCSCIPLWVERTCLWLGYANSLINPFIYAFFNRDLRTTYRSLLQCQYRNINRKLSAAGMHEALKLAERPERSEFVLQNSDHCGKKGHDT

pIC50, pKi: −log10 of the molar value.

Consider `CC(Nc1nc(N)nc(NCCOc2ccc(F)cc2)n1)c1ccc(F)cc1` (stereo not drawn), for which, in assay [1], the pKi was under 7.00.
On to `CC(Nc1nc(N)nc(NCCOc2ccccc2)n1)c1ccccc1` (stereo not drawn), for which the pKi in assay [2] was 8.52; in assay [1], under 7.00.
In assay [1], `COc1cccc(OC)c1-c1cccc(CCN(C)C)c1` had a pKi of 5.32.
In turn, `CCN(CC)C(=O)[C@@H]1C=C2c3cccc4[nH]c(Br)c(c34)C[C@H]2N(C)C1` had a pKi in assay [3] of 7.50.
`COc1ccccc1N1CCN(Cc2cn(-c3cccc4ccccc34)c3ccccc23)CC1` showed a pKi in assay [1] of 6.15.
On the same count and under the same terms, under `O=C1Cc2ccccc2N1CC/C=C/CCN1CCc2ccccc2C1` stands under 6.00; under `CCC1(CCCCN2CCN(c3ccc(Cl)cc3)CC2)C(=O)Nc2cc(F)ccc21` (stereo not drawn), 5.79.
`Cc1nn(C)c(C)c1-c1ccc(O)c(CCN(C)C)c1` had a pKi in assay [1] of under 5.00.
`COc1ccc(S(=O)(=O)NCCCN2CCN(c3ccccc3OC)CC2)cc1`: the pKi in assay [1] is 6.57.
Regarding `O=S(=O)(c1ccc2cc[nH]c2c1)N1CCC[C@H]1CCN1CCC(Oc2ccc(Cl)cc2)CC1`, the figures for the pKi in assay [2] and in assay [1] were 8.70 and 6.25, respectively.
The corresponding values for `CNC(=O)Cn1c2c(c3ccccc31)CN(CCCCC13CCCc4cccc(c41)NC3=O)CC2` (stereo not drawn) are 8.45 and 6.89.
In assay [1], `CCOc1ccccc1N1CCN(CCCCC(=O)NCc2nc3cc(F)ccc3c(=O)n2-c2ccccc2)CC1` had a pIC50 of 6.30.
As for `Clc1ccc(-c2nn(Cc3ccccc3)c3c2CCNCC3)cc1` [JNJ-18038683 FREE BASE], the pKi in assay [4] is 6.50; in assay [1], 8.19.
In assay [1], `Cc1cccc(S(=O)(=O)N(C)[C@H](C)CCN2CCC(C)CC2)c1` [SB-258719] had a pKi of under 5.52.

The values above are taken from ChEMBL document CHEMBL4342419 (Eur J Med Chem, 2019).
